# According to patent publication US20100331336A1, “PROTECTIVE EFFECT OF HIGH DOSE FOLATE ON MYCARDIAL ISCHEMIA” (Universiteit Antwerpen, priority 2008, published 2010):
# Columns and labels:
# myocardial superoxide = assay: Myocardial superoxide by lucigenin-enhanced chemiluminescence; format: in vivo, rat; conditions: for decline of O2^− generation on pre-incubation of extracts: 100 μM BH4
# Method: (§1) Adult Wistar rats received FA (10 mg/day unless otherwise stated) or placebo by oral gavage for 7-days prior to performing the ischemia/reperfusion (IR) experiment. A total of 131 rats were used, the sample size reflecting the requirement for multiple assays that could not be performed in each animal, but were rather obtained in different subsets of the total group. Animals were anesthetized (pentobarbital 60 mg/kg), intubated via tracheotomy, and ventilated (Harvard Apparatus, Mass.). ECG was monitored and temperature maintained at 37.5° C. The left anterior artery was exposed through the 4-5th intercostal space and a suture placed around it, and transient coronary artery ligation performed for 30 min with (n=85) or without (n=46) 90 min reperfusion. In one subgroup of reperfused animals (n=9), FA was provided 10 minutes after the onset of LAD occlusion (i.e. 20 minutes before the onset of reperfusion), delivered as an IV-bolus.
# (§2) Superoxide was assessed by lucigenin (5 μM)-enhanced chemiluminescence (Beckman LS60001C, n=23)^22 and fluorescent microtopography (dichlorodihydro-fluorescein diacetate, DCF, n=16) and dihydroethidium, DHE, n=24) (Gupte et al., 2005). The direct anti-oxidants effects of folic acid were analysed using an in vitro xanthine/xanthine oxidase system (Antoniades et al., 2006) and compared with Tempol.
# [1] = system: isolated hearts of adult Wistar rats; assay: In vitro IR model, isolated perfused hearts: infarct size and LDH; parameters: species or system rat
# Method: (§3) Adult Wistar rats (n=28) were anesthetized (pentobarbital 60 mg/kg), and hearts rapidly excised and mounted onto a retrograde perfusion system (Emka, Paris, France) using warmed, oxygenated buffered Krebs-Henseleit solution at constant perfusion pressure (75 mmHg). Hearts were paced at 300 bpm, and maintained in an unloaded state. Coronary flow was measured by an in-line ultrasonic flow probe (Transonic Systems, Ithaca, N.Y., USA). After 30 min equilibration, vasodilators drugs (bradykinin and sodium nitroprusside) were infused by bolus injection (50 μl, 10^−8-10^−5.5 M i.c.) and coronary flow reserve assessed at constant perfusion pressure. After re-establishing baseline, hearts received FA (4.5 10^−6M i.c.) or vehicle for 30 min. Afterwards the hearts were subjected to 40-min zero coronary flow followed by 40 min of reperfusion. Coronary effluent was collected, concentrated (Sartorius-Sipan, Lier, Belgium) and analysed for lactate dehydrogenase (Vitros 950AT, O. C. D., Beerse, Belgium). Coronary vasodilator responses to the same two agents were repeated following reperfusion.
# (§4) Infarct size was assessed in 31 rats, with area at risk (AAR) determined by negative staining with Evans blue injected during coronary occlusion, and subsequent staining with TTC to detect myocardial necrosis. LV (free wall+whole septum), AAR (neg Evan's Blue) and area of necrosis (TTC-white) were measured by planimetry (Soft Imaging system GmbH, Analysis pro version 3.00), and digitized images subjected to equivalent background subtraction, brightness, and contrast enhancement for improved clarity and sharpness. For in vitro studies, TTC staining was not preceded by Evans' blue staining because global ischemia was created. Contraction band necrosis was assessed in vivo rat hearts (n=22) fixed in Carnoy solution and stained with Masson's trichrome. Serial adjacent fields were examined throughout the full LV to calculate the percent myocardium with contraction bands present. Similar analysis was performed for TUNEL-positivity (Chemicon Intern, Temecula, Calif.), also expressed as percent LV area.
# [2] = system: Adult Wistar rats, coronary artery ligation; assay: Ischemia and reperfusion arrhythmia, in vivo IR; parameters: species or system rat
# Method: as §1
# [3] = system: superoxide generated by xanthine/xanthine oxidase; assay: In vitro xanthine/xanthine oxidase O2− generating system; format: biochemical; conditions: lucigenin-enhanced chemiluminescence, FIG. 5F
# Method: as §2
# [4] = system: Adult Wistar rats, coronary artery ligation; assay: Regional myocardial blood flow by microspheres; format: in vivo, rat; conditions: FA pre-treatment
# Method: as §1
# Regional myocardial blood flow was assessed (n=12) by nuclear-activated microspheres ([…], BioPal, Worcester, MA) injected in the left atrium (0.3 ml of 2.5*10^6 spheres/ml) at baseline and after 5 and 30 min of ischemia (Reinhardt et al., 2001). Total counts per minute (cpm) were normalized to weight and results from the ischemic zone normalized to the remote region to provide relative blood flow before and during ischemia.
# serum homocysteine = conditions: achievable with 0.8 mg/d; cited from earlier work
# [5] = system: Adult Wistar rats, coronary artery ligation; assay: HPLC analysis of high energy phosphate metabolism in anterior wall samples; format: in vivo, rat; conditions: FA pre-treatment; 30 min ischemia, versus controls
# Method: as §1, with “In one subgroup of reperfused animals (n=9), FA was provided 10 minutes after the onset of LAD occlusion (i.e. 20 minutes before the onset of reperfusion), delivered as an IV-bolus.” left out
# Snap frozen samples (n=24) from the anterior wall (±FA pre-treatment; ±30 min ischemia, no reperfusion) were de-proteinized and subjected to HPLC analysis of water-soluble low-molecular weight compounds reflecting tissue oxid-oreductive and energy status. High-energy phosphates, oxypurines (hypoxanthine, xanthine, and uric acid), nucleosides (inosine and adenosine), malondialdehyde, and reduced and oxidized glutathione were measured by ion-pairing HPLC as described (Takimoto et al., 2005).
# [6] = system: Adult Wistar rats, coronary artery ligation; assay: Open chest echocardiography during LAD occlusion; format: in vivo, rat; conditions: FA pre-treatment; at 30 min ischemia
# Method: as §1
# (§5) LV function was assessed in vivo by pressure-volume loops (n=14) during both ischemia and following reperfusion. […] Open chest myocardial anterior wall motion was also measured using a Sequoia—Acuson C256 equipped with 15 MHz linear transducer (Sequoia C256 Echocardiography System, Acuson Corporation, Mountain View, Calif.) at the parasternal view of the left ventricle chamber as described.
# eNOS = eNOS monomer/dimer formation and NOS enzymatic activity in IR tissue; format: in vivo, rat
# Method: as §1
# SDS-resistant eNOS dimers and monomers were assayed on ischemia/reperfusion-tissue (n=16) using low temperature SDS-PAGE as previously described (Takimoto. et al., 2005) NOS enzymatic activity was assessed by arginine to citrulline conversion assay from extracts obtained from frozen myocardium (n=15) (Takimoto. et al., 2005).
# [7] = system: Adult Wistar rats, coronary artery ligation; assay: Infarct size analysis and histology, in vivo IR; parameters: species or system rat
# Method: as §1, §4
# [8] = system: isolated hearts of adult Wistar rats; assay: Coronary flow and vasodilator response in isolated hearts; parameters: species or system rat
# Method: as §3
# [9] = system: Adult Wistar rats, coronary artery ligation; assay: In vivo ischemia/reperfusion model, pressure-volume loop hemodynamics; parameters: species or system rat; conditions: FA 10 mg/d oral pre-treatment 7 days; 30 min LAD occlusion
# Method: as §1, §5
# [10] = FA 10 mg i.v. after 10 min of coronary occlusion
smiles,measurement,setting,value
"C[C@H](O)[C@H](O)[C@H]1CNc2nc(N)[nH]c(=O)c2N1 [BH4, tetrahydrobiopterin]",decline of O2^− generation on pre-incubation of extracts,myocardial superoxide; extracts of FA pre-treated hearts,52.1±11.3%
same,decline of O2^− generation on pre-incubation of extracts,myocardial superoxide; extracts of vehicle treated IR hearts,90.9±0.7%
"Nc1nc2ncc(CNc3ccc(C(=O)N[C@@H](CCC(=O)O)C(=O)O)cc3)nc2c(=O)[nH]1 [FA, folic acid]",infarct size in isolated hearts,"[1]; FA 4.5 10^−6M i.c. 30 min, 40 min zero flow, 40 min reperfusion",7.7±2.8%
same,reduction of myocardial necrosis in hearts studied in vitro,"[1]; FA pre-treatment, FIG. 4D",~80%
same,lactate dehydrogenase in the coronary effluent,"[1]; FA pre-treatment, after ischemia-reperfusion",less lactate dehydrogenase
same,decline of myocardial superoxide (lucigenin chemiluminescence),"myocardial superoxide; FA pre-treated animals, during ischemia and after 90 minutes reperfusion",~50%
same,reperfusion arrhythmia occurrence,[2]; FA treated,no FA treated animal
same,"lethal ventricular arrhythmia triggered by ischemia, % of rats",[2]; FA-treated,8.3%
same,direct anti-oxidant effect,[3],substantial anti-oxidant effects
same,"ratio of ischemic/remote zone myocardial perfusion, decline",[4]; after 5 min of LAD ligation,−77.7±5.1%
same,flow compared to the remote region,[4]; at 30 minutes of ischemia,−78.4±9.3%
same,decrease in serum homocysteine,serum homocysteine,3 µmol/L
same,myocardial ATP and ADP during ischemia,[5],maintained at higher levels
same,Ejection fraction,[6],72.8±1.2%
same,anterior-septal thickening,[6],37.±5.3%
same,eNOS ratio of dimer/monomer,eNOS; FA-pre-treated IR hearts,near normal
same,"NOS activity, arginine-citrulline conversion","eNOS; treated vs. non-treated hearts, p=0.08",not significant improved
same,"TUNEL staining, % LV",[7]; [10],4.3±1.3 % LV
same,area at risk (AAR),[7]; [10],52.4±5.5%
same,"contraction band necrosis, % LV",[7]; [10],5.1±0.7 % LV
same,infarct size relative to AAR,"[7]; FA 10 mg i.v. after 10 min of coronary occlusion, n=5",3.0±2.2%
same,"infarct size, % area at risk","[7]; oral FA 10 mg/d pre-treatment 7 days, 30 min ischemia, 90 min reperfusion",3.8±1.2%
same,"Reperfusion contraction band necrosis, % of the LV","[7]; oral FA pre-treatment, IR",4.6%±1.2
same,"TUNEL-positive myocytes, % of LV fields","[7]; oral FA pre-treatment, IR",4.3±1.3%
same,infarct size with lower doses,[7]; pre-treatment by 40% and 10% of the principal FA dose (1 and 4 mg/d),decline in infarct size occurred
same,Bradykinin induced maximal rise in coronary flow,"[8]; after IR, hearts pre-treated with FA",122.0±11.3%
same,coronary flow after ischemia,[8]; isolated hearts,8.9 ± 1.4 mL/min
same,coronary flow at baseline,[8]; isolated hearts,11.4 ± 13.8 mL/min
same,Peak LV pressure (systolic blood pressure) change with LAD occlusion,[9],changed little
